From ChEMBL document CHEMBL3992552, “Mechanisms of action and structure-activity relationships of cytotoxic flavokawain derivatives” (Bioorg Med Chem, 2017)
Activity calls are given as the source filed them. No cut-off for these calls is given here.

Tested on: PC-3
Assay: Cell cycle arrest in human PC3 cells harboring p53 mutant assessed as mitotic index at 10 uM measured after 48 hrs by Hoechst staining based fluorescence assay (reference value: 2.5)
Type: functional
Details: not given

SMILES | Activity_index
COc1cc(OC)c(C(=O)/C=C/c2ccccc2SC)c(OC)c1 | 12.1

Tested on: Huh-7
Assay: Cell cycle arrest in human HuH7 cells assessed as accumulation at S phase at 25 uM measured after 48 hrs by Hoechst/BrdU staining based fluorescence assay (reference value: 44%)
Type: functional
Details: not given

SMILES | Activity [%]
COc1cc(OC)c(C(=O)/C=C/c2ccccc2SC)c(OC)c1 | 0.3

Tested on: HCT-116
Assay: Cell cycle arrest in human HCT116 cells assessed as accumulation at G1/S phase by Hoechst staining based fluorescence assay
Type: functional
Details: not given

SMILES | Activity
COc1cc(OC)c(C(=O)/C=C/c2ccccc2SC)c(OC)c1 | Active

Tested on: Huh-7
Assay: Cytotoxicity against human HuH7 cells assessed as cell survival at 50 uM after 48 hrs by Hoechst 33342 staining based assay relative to control
Type: functional
Details: Huh-7, 48 h, read-out: Survival

SMILES | viability at 50 µM [%]
COc1cc(OC)c(C(=O)/C=C/c2ccccc2SC)c(OC)c1 | 4

Tested on: not listed separately
Assay: Selectivity index, ratio of IC50 for human fibroblasts to IC50 for human PC3 cells
Details: not given

SMILES | Ratio IC50
COc1cc(OC)c(C(=O)/C=C/c2ccccc2SC)c(OC)c1 | 4.2

Tested on: HaCaT
Assay: Cell cycle arrest in human HaCaT cells assessed as accumulation at M phase by Hoechst staining based fluorescence assay
Type: functional
Details: not given

SMILES | Activity
COc1cc(OC)c(C(=O)/C=C/c2ccccc2SC)c(OC)c1 | Active

Tested on: HCT-116
Assay: Induction of apoptosis in human HCT116 cells harboring wild-type p53 assessed as increase in cleaved caspase3 at 2 times IC50 after 48 hrs by Hoechst staining based assay
Type: functional, cell-based
Details: not given

SMILES | Activity
COc1cc(OC)c(C(=O)/C=C/c2ccccc2SC)c(OC)c1 | Active

Tested on: HCT-116
Assay: Cell cycle arrest in human HCT116 cells harboring wild-type p53 assessed as mitotic index at 10 uM measured after 48 hrs by Hoechst staining based fluorescence assay (reference value: 2.3)
Type: functional
Details: not given

SMILES | Activity_index
COc1cc(OC)c(C(=O)/C=C/c2ccccc2SC)c(OC)c1 | 0.6

Tested on: NCI-H727
Assay: Cell cycle arrest in human NCI-H727 cells assessed as accumulation at G1/S phase by Hoechst staining based fluorescence assay
Type: functional
Details: not given

SMILES | Activity
COc1cc(OC)c(C(=O)/C=C/c2ccccc2SC)c(OC)c1 | Active

Tested on: Caco-2
Assay: Cytotoxicity against human Caco2 cells assessed as cell viability after 48 hrs by Hoechst 33342 staining based assay
Type: functional
Details: Caco-2, 48 h

SMILES | IC50 [µM]
COc1cc(OC)c(C(=O)/C=C/c2ccccc2SC)c(OC)c1 | 8.8

Tested on: not listed separately
Assay: Cytotoxicity against human fibroblasts assessed as cell survival at 50 uM after 48 hrs by Hoechst 33342 staining based assay relative to control
Design: species or system Fibroblast
Details: read-out: Survival

SMILES | viability at 48 h, 50 µM [%]
COc1cc(OC)c(C(=O)/C=C/c2ccccc2SC)c(OC)c1 | 74

Tested on: NCI-H727
Assay: Cytotoxicity against human NCI-H727 cells assessed as cell viability after 48 hrs by Hoechst 33342 staining based assay
Type: functional
Details: NCI-H727, 48 h

SMILES | IC50 [µM]
COc1cc(OC)c(C(=O)/C=C/c2ccccc2SC)c(OC)c1 | 8.7

Tested on: HCT-116
Assay: Induction of apoptosis in human HCT116 cells harboring wild-type p53 assessed as increase in late apoptosis at 2 times IC50 after 48 hrs by YoPro/propidium iodide/Hoechst staining based assay
Type: functional, cell-based
Details: not given

SMILES | Activity
COc1cc(OC)c(C(=O)/C=C/c2ccccc2SC)c(OC)c1 | Active

Tested on: NCI-H727
Assay: Cell cycle arrest in human NCI-H727 cells harboring p53 mutant assessed as mitotic index at 10 uM measured after 48 hrs by Hoechst staining based fluorescence assay (reference value: 1.1)
Type: functional
Details: not given

SMILES | Activity_index
COc1cc(OC)c(C(=O)/C=C/c2ccccc2SC)c(OC)c1 | 1

Tested on: Caco-2
Assay: Cell cycle arrest in human Caco2 cells assessed as accumulation at M phase by Hoechst staining based fluorescence assay
Type: functional
Details: not given

SMILES | Activity
COc1cc(OC)c(C(=O)/C=C/c2ccccc2SC)c(OC)c1 | Active

Tested on: Fibroblast
Assay: Cytotoxicity against human fibroblasts assessed as cell viability after 48 hrs by Hoechst 33342 staining based assay
Details: not given

SMILES | IC50 [µM]
COc1cc(OC)c(C(=O)/C=C/c2ccccc2SC)c(OC)c1 | > 20

Tested on: Caco-2
Assay: Cell cycle arrest in human Caco2 cells assessed as accumulation at S phase at 10 uM measured after 48 hrs by Hoechst/BrdU staining based fluorescence assay (reference value: […])
Type: functional
Details: not given

SMILES | Activity [%]
COc1cc(OC)c(C(=O)/C=C/c2ccccc2SC)c(OC)c1 | 36

Tested on: not listed separately
Assay: Selectivity index, ratio of IC50 for human fibroblasts to IC50 for human NCI-H727 cells
Details: not given

SMILES | Ratio IC50
COc1cc(OC)c(C(=O)/C=C/c2ccccc2SC)c(OC)c1 | 3.7

Tested on: MCF7
Assay: Induction of apoptosis in human MCF7 cells harboring wild-type p53 assessed as upregulation of p21 measured after 48 hrs by Hoechst staining based fluorescence assay
Type: functional, cell-based
Details: not given

SMILES | Activity
COc1cc(OC)c(C(=O)/C=C/c2ccccc2SC)c(OC)c1 | Active

Tested on: PC-3
Assay: Induction of apoptosis in human PC3 cells harboring p53 mutant assessed as increase in early apoptosis at 2 times IC50 after 48 hrs by YoPro/propidium iodide/Hoechst staining based assay
Type: functional, cell-based
Details: not given

SMILES | Activity
COc1cc(OC)c(C(=O)/C=C/c2ccccc2SC)c(OC)c1 | Active

Tested on: HCT-116
Assay: Induction of apoptosis in human HCT116 cells harboring wild-type p53 assessed as upregulation of cyclinB1 measured after 48 hrs by Hoechst staining based assay
Type: functional, cell-based
Details: not given

SMILES | Activity
COc1cc(OC)c(C(=O)/C=C/c2ccccc2SC)c(OC)c1 | Active

Tested on: NCI-H727
Assay: Cell cycle arrest in human NCI-H727 cells harboring p53 mutant assessed as mitotic index at 25 uM measured after 48 hrs by Hoechst staining based fluorescence assay (reference value: 1.1)
Type: functional
Details: not given

SMILES | Activity_index
COc1cc(OC)c(C(=O)/C=C/c2ccccc2SC)c(OC)c1 | 0

Tested on: HCT-116
Assay: Induction of apoptosis in human HCT116 cells harboring wild-type p53 assessed as increase in early apoptosis at 2 times IC50 after 48 hrs by YoPro/propidium iodide/Hoechst staining based assay
Type: functional, cell-based
Details: not given

SMILES | Activity
COc1cc(OC)c(C(=O)/C=C/c2ccccc2SC)c(OC)c1 | Active

Tested on: PC-3
Assay: Cytotoxicity against human PC3 cells assessed as cell survival at 50 uM after 48 hrs by Hoechst 33342 staining based assay relative to control
Type: functional
Details: PC-3, 48 h, read-out: Survival

SMILES | viability at 50 µM [%]
COc1cc(OC)c(C(=O)/C=C/c2ccccc2SC)c(OC)c1 | 30

Tested on: MCF7
Assay: Induction of apoptosis in human MCF7 cells harboring wild-type p53 assessed as upregulation of cyclinB1 measured after 18 hrs by Hoechst staining based assay
Type: functional, cell-based
Details: not given

SMILES | Activity
COc1cc(OC)c(C(=O)/C=C/c2ccccc2SC)c(OC)c1 | Active

Tested on: not listed separately
Assay: Selectivity index, ratio of IC50 for human fibroblasts to IC50 for human HaCaT cells
Details: not given

SMILES | Ratio IC50
COc1cc(OC)c(C(=O)/C=C/c2ccccc2SC)c(OC)c1 | 4.1

Tested on: MDA-MB-231
Assay: Cell cycle arrest in human MDA-MB-231 cells harboring p53 mutant assessed as mitotic index at 25 uM measured after 48 hrs by Hoechst staining based fluorescence assay (reference value: 2.1)
Type: functional
Details: not given

SMILES | Activity_index
COc1cc(OC)c(C(=O)/C=C/c2ccccc2SC)c(OC)c1 | 13.2

Tested on: Huh-7
Assay: Cytotoxicity against human HuH7 cells assessed as cell viability after 48 hrs by Hoechst 33342 staining based assay
Type: functional
Details: Huh-7, 48 h

SMILES | IC50 [µM]
COc1cc(OC)c(C(=O)/C=C/c2ccccc2SC)c(OC)c1 | 14.1

Tested on: Caco-2
Assay: Cell cycle arrest in human Caco2 cells assessed as mitotic index at 10 uM measured after 48 hrs by Hoechst staining based fluorescence assay (reference value: 3.6)
Type: functional
Details: not given

SMILES | Activity_index
COc1cc(OC)c(C(=O)/C=C/c2ccccc2SC)c(OC)c1 | 29.3

Tested on: PC-3
Assay: Induction of apoptosis in human PC3 cells harboring p53 mutant assessed as increase in cleaved caspase3 at 2 times IC50 after 48 hrs by Hoechst staining based assay
Type: functional, cell-based
Details: not given

SMILES | Activity
COc1cc(OC)c(C(=O)/C=C/c2ccccc2SC)c(OC)c1 | Active

Tested on: MDA-MB-231
Assay: Induction of apoptosis in human MDA-MB-231 cells harboring p53 mutant assessed as increase in early apoptosis at 2 times IC50 after 24 hrs by YoPro/propidium iodide/Hoechst staining based assay
Type: functional, cell-based
Details: not given

SMILES | Activity
COc1cc(OC)c(C(=O)/C=C/c2ccccc2SC)c(OC)c1 | Active

Tested on: HaCaT
Assay: Cell cycle arrest in human HaCaT cells harboring […] p53 assessed as mitotic index at 25 uM measured after 48 hrs by Hoechst staining based fluorescence assay (reference value: 2.6)
Type: functional
Details: not given

SMILES | Activity_index
COc1cc(OC)c(C(=O)/C=C/c2ccccc2SC)c(OC)c1 | 0.1

Tested on: PC-3
Assay: Cytotoxicity against human PC3 cells assessed as cell viability after 48 hrs by Hoechst 33342 staining based assay
Type: functional
Details: PC-3, 48 h

SMILES | IC50 [µM]
COc1cc(OC)c(C(=O)/C=C/c2ccccc2SC)c(OC)c1 | 7.6

Tested on: MDA-MB-231
Assay: Induction of apoptosis in human MDA-MB-231 cells harboring p53 mutant assessed as increase in cleaved caspase3 at 2 times IC50 after 24 hrs by Hoechst staining based assay
Type: functional, cell-based
Details: not given

SMILES | Activity
COc1cc(OC)c(C(=O)/C=C/c2ccccc2SC)c(OC)c1 | Active

Tested on: PC-3
Assay: Cell cycle arrest in human PC3 cells harboring p53 mutant assessed as mitotic index at 25 uM measured after 48 hrs by Hoechst staining based fluorescence assay (reference value: 2.5)
Type: functional
Details: not given

SMILES | Activity_index
COc1cc(OC)c(C(=O)/C=C/c2ccccc2SC)c(OC)c1 | 0.3

Tested on: Caco-2
Assay: Cell cycle arrest in human Caco2 cells assessed as mitotic index at 25 uM measured after 48 hrs by Hoechst staining based fluorescence assay (reference value: 3.6)
Type: functional
Details: not given

SMILES | Activity_index
COc1cc(OC)c(C(=O)/C=C/c2ccccc2SC)c(OC)c1 | 4.2

Tested on: Huh-7
Assay: Cell cycle arrest in human HuH7 cells assessed as accumulation at S phase at 10 uM measured after 48 hrs by Hoechst/BrdU staining based fluorescence assay (reference value: 44%)
Type: functional
Details: not given

SMILES | Activity [%]
COc1cc(OC)c(C(=O)/C=C/c2ccccc2SC)c(OC)c1 | 37

Tested on: MDA-MB-231
Assay: Induction of apoptosis in human MDA-MB-231 cells harboring p53 mutant assessed as upregulation of cyclinB1 after 18 hrs by Hoechst staining based assay
Type: functional, cell-based
Details: not given

SMILES | Activity
COc1cc(OC)c(C(=O)/C=C/c2ccccc2SC)c(OC)c1 | Active

Tested on: HCT-116
Assay: Cell cycle arrest in human HCT116 cells harboring wild-type p53 assessed as accumulation at S phase at 10 uM measured after 48 hrs by Hoechst/BrdU staining based fluorescence assay (reference value: 68.4%)
Type: functional
Details: not given

SMILES | Activity [%]
COc1cc(OC)c(C(=O)/C=C/c2ccccc2SC)c(OC)c1 | 25
